Biological target: Human complement C1s enzyme (Homo sapiens (Human), UniProt P09871)
Experiment: Human C1s enzyme assay
Format: biochemical
Conditions: Human C1s enzyme assay of Example 3; read-out: IC50 (Stars)
How it was run: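 IC50 derived by nonlinear regression of rate versus concentration, with rate taken from A405 kinetics (30 s intervals, 30 min) after adding 100 μM each Z-L-Lys-SBzl and DTNB. C1s from human serum, 1.16 nM, exposed to compound for 5 min at RT beforehand; buffer 50 mM Tris, 1 M NaCl, pH 7.5.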

Chain of Human complement C1s enzyme (P09871 438-688 limits assumed): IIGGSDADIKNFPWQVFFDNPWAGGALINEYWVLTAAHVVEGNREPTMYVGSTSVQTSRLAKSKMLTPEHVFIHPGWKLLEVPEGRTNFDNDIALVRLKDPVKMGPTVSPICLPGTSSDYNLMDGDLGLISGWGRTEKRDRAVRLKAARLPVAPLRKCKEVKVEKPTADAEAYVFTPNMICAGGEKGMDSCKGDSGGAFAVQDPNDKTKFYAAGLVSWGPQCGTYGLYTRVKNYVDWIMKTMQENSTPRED
Chain of Human complement C1s enzyme (P09871 16-437 partner limits assumed): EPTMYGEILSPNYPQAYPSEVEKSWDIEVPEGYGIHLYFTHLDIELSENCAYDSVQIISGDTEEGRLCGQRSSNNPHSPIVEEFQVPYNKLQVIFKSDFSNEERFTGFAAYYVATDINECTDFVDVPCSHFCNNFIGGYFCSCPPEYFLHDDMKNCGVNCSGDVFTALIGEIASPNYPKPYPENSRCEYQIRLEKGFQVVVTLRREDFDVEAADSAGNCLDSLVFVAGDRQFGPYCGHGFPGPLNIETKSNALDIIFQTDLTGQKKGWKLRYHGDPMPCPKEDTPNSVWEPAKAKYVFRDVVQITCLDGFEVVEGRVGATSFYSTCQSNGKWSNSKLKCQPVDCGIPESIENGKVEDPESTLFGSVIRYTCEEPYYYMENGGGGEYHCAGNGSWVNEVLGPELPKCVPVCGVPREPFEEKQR

Row | IC50 | Structure (SMILES)
1 | < 100 nM | C[C@@H](NC(=O)[C@@H]1C[C@@H](OC(F)F)CN1C(=O)CNC(=O)c1ccc2c(c1)-c1ccccc1C2(F)F)c1ccc(C(=N)N)s1 [Compound 30, (2S,4R)—N—((R)-1-(5-carbamimidoylthiophen-2-yl)ethyl)-1-((9,9-difluoro-9H-fluorene-3-carbonyl)glycyl)-4-(difluoromethoxy)pyrrolidine-2-carboxamide]
2 | < 100 nM | N=C(N)c1csc(CNC(=O)[C@@H]2CC3(CN2C(=O)CNC(=O)c2ccc(-c4ccc(F)cc4F)cc2)OCCO3)c1 [Compound 107, (S)—N-((4-carbamimidoylthiophen-2-yl)methyl)-7-((2′,4′-difluoro-[1,1′-biphenyl]-4-carbonyl)glycyl)-1,4-dioxa-7-azaspiro[4.4]nonane-8-carboxamide]
3 | < 100 nM | Cc1cc(C(=O)NCC(=O)N2[C@H]3C[C@@]3(C)C[C@H]2C(=O)N[C@H](C)c2ccc(C(=N)N)s2)ccc1Oc1ccccc1 [Compound 31, (1S,3S,5S)—N—((R)-1-(5-carbamimidoylthiophen-2-yl)ethyl)-5-methyl-2-((3-methyl-4-phenoxybenzoyl)glycyl)-2-azabicyclo[3.1.0]hexane-3-carboxamide]
4 | < 100 nM | COC[C@@]1(F)C[C@@H](C(=O)N[C@H](C)c2cc(C(=N)N)cs2)N(C(=O)CNC(=O)c2ccc(Oc3ccc(F)cc3)cc2)C1 [Compound 17, (2S,4R)—N—((R)-1-(4-carbamimidoylthiophen-2-yl)ethyl)-4-fluoro-1-((4-(4-fluorophenoxy)benzoyl)glycyl)-4-(methoxymethyl)pyrrolidine-2-carboxamide]
5 | < 100 nM | N=C(N)c1csc(CNC(=O)[C@@H]2CC3(CN2C(=O)CNC(=O)c2ccc(-c4c(F)cccc4F)cc2)OCCO3)c1 [Compound 196, (S)—N-((4-carbamimidoylthiophen-2-yl)methyl)-7-((2′,6′-difluoro-[1,1′-biphenyl]-4-carbonyl)glycyl)-1,4-dioxa-7-azaspiro[4.4]nonane-8-carboxamide]
6 | < 100 nM | C[C@@H](NC(=O)[C@@H]1C[C@](F)(CF)CN1C(=O)CNC(=O)c1ccc(Oc2ccc(F)cc2)cc1)c1cc(C(=N)N)cs1 [Compound 13]
7 | < 100 nM | C[C@@H](NC(=O)[C@@H]1CC2(CN1C(=O)CNC(=O)c1cc3ccc1CCc1ccc(cc1)CC3)OCCO2)c1cc(C(=N)N)cs1 [Compound 66, (S)-7-((1,4(1,4)-dibenzenacyclohexaphane-1^2-carbonyl)glycyl)-N—((R)-1-(4-carbamimidoylthiophen-2-yl)ethyl)-1,4-dioxa-7-azaspiro[4.4]nonane-8-carboxamide]
8 | < 100 nM | Cc1ccc(-c2ccc(C(=O)NCC(=O)N3CC4(C[C@H]3C(=O)N[C@H](C)c3cc(C(=N)N)cs3)OCCO4)cc2)cc1 [Compound 126, (S)—N—((R)-1-(4-carbamimidoylthiophen-2-yl)ethyl)-7-((4′-methyl-[1,1′-biphenyl]-4-carbonyl)glycyl)-1,4-dioxa-7-azaspiro[4.4]nonane-8-carboxamide]
9 | < 100 nM | COC[C@@]1(F)C[C@@H](C(=O)N[C@H](C)c2cc(C(=N)N)cs2)N(C(=O)CNC(=O)c2ccc3c(c2)-c2ccccc2C3(F)F)C1 [Compound 20, (2S,4R)—N—((R)-1-(4-carbamimidoylthiophen-2-yl)ethyl)-1-((9,9-difluoro-9H-fluorene-3-carbonyl)glycyl)-4-fluoro-4-(methoxymethyl)pyrrolidine-2-carboxamide]
10 | < 100 nM | C[C@@H](NC(=O)[C@@H]1CC2(CN1C(=O)CNC(=O)c1ccc3cc4ccccc4cc3c1)OCCO2)c1cc(C(=N)N)cs1 [Compound 78, (S)-7-((anthracene-2-carbonyl)glycyl)-N—((R)-1-(4-carbamimidoylthiophen-2-yl)ethyl)-1,4-dioxa-7-azaspiro[4.4]nonane-8-carboxamide]
11 | < 100 nM | N=C(N)c1csc(CNC(=O)[C@@H]2CC3(CN2C(=O)CNC(=O)c2ccc(-c4ccsc4)cc2)OCCO3)c1 [Compound 165, (S)-N-((4-carbamimidoylthiophen-2-yl)methyl)-7-((4-(thiophen-3-yl)benzoyl)glycyl)-1,4-dioxa-7-azaspiro[4.4]nonane-8-carboxamide]
12 | < 100 nM | Cc1cc(C(=O)NCC(=O)N2CC3(C[C@H]2C(=O)N[C@H](C)c2cc(C(=N)N)cs2)OCCO3)cc2c1C(F)(F)c1ccccc1-2 [Compound 179, (S)—N—((R)-1-(4-carbamimidoylthiophen-2-yl)ethyl)-7-((9,9-difluoro-1-methyl-9H-fluorene-3-carbonyl)glycyl)-1,4-dioxa-7-azaspiro[4.4]nonane-8-carboxamide]

Same assay, conditions: Human complement C1s enzyme 1.16 nM, substrate Z-L-Lys-SBzl 100 μM, assay of Example 3; read-out: IC50 (Stars)

Row | IC50 | Structure (SMILES)
13 | < 100 nM | C[C@@H](NC(=O)[C@@H]1C[C@]2(CN)C[C@@H]2N1C(=O)CNC(=O)c1ccc2c(c1)-c1ccccc1C2(F)F)c1cc(C(=N)N)cs1 [Compound 303, (1S,3S,5S)-5-(aminomethyl)-N—((R)-1-(4-carbamimidoylthiophen-2-yl)ethyl)-2-((9,9-difluoro-9H-fluorene-3-carbonyl)glycyl)-2-azabicyclo[3.1.0]hexane-3-carboxamide]
14 | < 100 nM | COC(=O)/N=C(/N)c1csc([C@@H](C)NC(=O)[C@@H]2C[C@@H](OC(F)F)CN2C(=O)CNC(=O)c2ccc3c(c2)-c2ccccc2C3(F)F)c1 [Compound 247, methyl ((E)-amino(5-((R)-1-((2S,4R)-1-((9,9-difluoro-9H-fluorene-3-carbonyl)glycyl)-4-(difluoromethoxy)pyrrolidine-2-carboxamido)ethyl)thiophen-3-yl)methylene)carbamate]
15 | 100 to 1000 nM | NCC(=O)Nc1csc(CNC(=O)[C@@H]2CC3(CN2C(=O)CNC(=O)c2ccc(Oc4ccc(F)cc4)cc2)OCCO3)c1 [Compound 316, (S)-N-((4-(2-aminoacetamido)thiophen-2-yl)methyl)-7-((4-(4-fluorophenoxy)benzoyl)glycyl)-1,4-dioxa-7-azaspiro[4.4]nonane-8-carboxamide]
16 | < 100 nM | C[C@@H](NC(=O)[C@@H]1C[C@@H](OC(F)F)CN1C(=O)CNC(=O)c1ccc2c(c1)C(C)(C)c1ccccc1-2)c1cc(C(=N)N)cs1 [Compound 348, (2S,4R)-N-((R)-1-(4-carbamimidoylthiophen-2-yl)ethyl)-4-(difluoromethoxy)-1-((9,9-dimethyl-9H-fluorene-2-carbonyl)glycyl) pyrrolidine-2-carboxamide]
17 | < 100 nM | COC[C@@]1(F)C[C@@H](C(=O)N[C@H](C)c2cc(C(=N)N)cs2)N(C(=O)CNC(=O)c2ccc3c(c2)S(=O)(=O)c2ccccc2-3)C1 [Compound 350, (2S,4R)—N—((R)-1-(4-carbamimidoylthiophen-2-yl)ethyl)-1-((5,5-dioxidodibenzo[b,d]thiophene-3-carbonyl)glycyl)-4-fluoro-4-(methoxymethyl) pyrrolidine-2-carboxamide]
18 | < 100 nM | Cc1c2ccccc2cc2cc(C(=O)NCC(=O)N3CC4(C[C@H]3C(=O)N[C@H](C)c3cc(C(=N)N)cs3)OCCO4)ccc12 [Compound 325, (S)—N—((R)-1-(4-carbamimidoylthiophen-2-yl)ethyl)-7-((10-methylanthracene-2-carbonyl)glycyl)-1,4-dioxa-7-azaspiro[4.4]nonane-8-carboxamide]
19 | < 100 nM | N=C(N)c1csc(CNC(=O)[C@@H]2CC3(CN2C(=O)CNC(=O)c2ccc(-c4ccc(F)nc4)cc2)OCCO3)c1 [Compound 209, (S)—N-((4-carbamimidoylthiophen-2-yl)methyl)-7-((4-(6-fluoropyridin-3-yl)benzoyl)glycyl)-1,4-dioxa-7-azaspiro[4.4]nonane-8-carboxamide]
20 | < 100 nM | C[C@@H](NC(=O)[C@@H]1C[C@@H](S(C)(=O)=O)CN1C(=O)CNC(=O)c1ccc2[nH]c3ccccc3c2c1)c1cc(C(=N)N)cs1 [Compound 340, N-(2-((2S,4R)-2-(((R)-1-(4-carbamimidoylthiophen-2-yl)ethyl)carbamoyl)-4-(methylsulfonyl)pyrrolidin-1-yl)-2-oxoethyl)-9H-carbazole-3-carboxamide]
21 | < 100 nM | C[C@@H](NC(=O)[C@@H]1C[C@H](C(F)(F)F)CN1C(=O)CNC(=O)c1ccc(Oc2ccc(F)cc2)cc1)c1cc(C(=N)N)cs1 [Compound 323, (2S,4S)—N—((R)-1-(4-carbamimidoylthiophen-2-yl)ethyl)-1-((4-(4-fluorophenoxy)benzoyl)glycyl)-4-(trifluoromethyl)pyrrolidine-2-carboxamide]
22 | < 100 nM | COC[C@@H]1C[C@@H](C(=O)N[C@H](C)c2cc(C(=N)N)cs2)N(C(=O)CNC(=O)c2ccc3oc4ccccc4c3c2)C1 (relative stereo) [Compound 295, (2S,4R*)—N—((R)-1-(4-carbamimidoylthiophen-2-yl)ethyl)-1-((dibenzo[b,d]furan-2-carbonyl)glycyl)-4-(methoxymethyl)pyrrolidine-2-carboxamide]
23 | > 1000 nM | O=C(NCC(=O)N1CC2(C[C@H]1C(=O)NCc1cc(Nc3nccs3)cs1)OCCO2)c1ccc(Oc2ccc(F)cc2)cc1 [Compound 282, (S)-7-((4-(4-fluorophenoxy)benzoyl)glycyl)-N-((4-(thiazol-2-ylamino)thiophen-2-yl)methyl)-1,4-dioxa-7-azaspiro[4.4]nonane-8-carboxamide]
24 | < 100 nM | C[C@@H](NC(=O)[C@@H]1C[C@](F)(CO)CN1C(=O)CNC(=O)c1ccc2c(c1)-c1ccccc1C2(F)F)c1cc(C(=N)N)cs1 [Compound 292, (2S,4R)—N—((R)-1-(4-carbamimidoylthiophen-2-yl)ethyl)-1-((9,9-difluoro-9H-fluorene-3-carbonyl)glycyl)-4-fluoro-4-(hydroxymethyl)pyrrolidine-2-carboxamide]

Same assay, conditions: Human complement C1s enzyme 1.16 nM, substrate Z-L-Lys-SBzl; assay of Example 3; read-out: IC50 (Stars)

Row | IC50 | Structure (SMILES)
25 | < 100 nM | N=C(N)c1c[nH]c(CNC(=O)[C@@H]2CC3(CN2C(=O)CNC(=O)c2ccc4c(c2)-c2ccccc2C4(F)F)OCCO3)c1 [Compound 423, (S)-N-((4-carbamimidoyl-1H-pyrrol-2-yl)methyl)-7-((9,9-difluoro-9H-fluorene-3-carbonyl)glycyl)-1,4-dioxa-7-azaspiro[4.4]nonane-8-carboxamide]

Reference: patent US20250346585A1 (Alexion Pharmaceuticals, Inc., priority 2022, published 2025)
